# Reference: patent US20070203183A1, “Diaryl piperidines as CB1 modulators” (Schering Corporation, priority 2006, published 2007)
# Read-outs that look alike come from different tables or passages of the source.
# Target: T1, cannabinoid CB1 (Homo sapiens, UniProt P21554)
# T1 construct: purchased
# Assay: Competition binding assay for cannabinoid CB1 affinity (3H-CP55,940 displacement, membranes)
# Protocol: Method for Evaluating Cannabinoid CB1 and CB2 Affinity
# Non-specific binding was defined in the presence of 10 μM CP55,940. For saturation studies, concentrations of ^3H-CP55,940 ranging from 0.1-5 nM were incubated with membranes in the presence and absence of 10 μM CP55,940. Assays were terminated after incubation for 1½ hours by rapid filtration onto 0.3% polyethylenamine treated GF/C filterplates using a BRANDEL cell harvester. The plates were dried and MICROSCINT scintillation cocktail was added, after which the bound radioactivity was quantified using a TOPCOUNT scintillation counter.
# The dissociation constant (Kd) of ^3H-CP55,940 at the CB1 and CB2 receptor were determined by plotting specific binding at each concentration of radioligand, and analysis by non-linear regression. For competition studies, the concentration of each drug that inhibited 50 percent of ^3H-CP55,940 binding (IC50) was determined by non-linear regression analysis of the radioligand displacement curves.
# [1] = competition with 0.5 nM 3H-CP55,940, Ki by Cheng-Prusoff, approximate values, receptor subtype not given, read-out: Ki values
# T1 sequence (P21554 whole entry): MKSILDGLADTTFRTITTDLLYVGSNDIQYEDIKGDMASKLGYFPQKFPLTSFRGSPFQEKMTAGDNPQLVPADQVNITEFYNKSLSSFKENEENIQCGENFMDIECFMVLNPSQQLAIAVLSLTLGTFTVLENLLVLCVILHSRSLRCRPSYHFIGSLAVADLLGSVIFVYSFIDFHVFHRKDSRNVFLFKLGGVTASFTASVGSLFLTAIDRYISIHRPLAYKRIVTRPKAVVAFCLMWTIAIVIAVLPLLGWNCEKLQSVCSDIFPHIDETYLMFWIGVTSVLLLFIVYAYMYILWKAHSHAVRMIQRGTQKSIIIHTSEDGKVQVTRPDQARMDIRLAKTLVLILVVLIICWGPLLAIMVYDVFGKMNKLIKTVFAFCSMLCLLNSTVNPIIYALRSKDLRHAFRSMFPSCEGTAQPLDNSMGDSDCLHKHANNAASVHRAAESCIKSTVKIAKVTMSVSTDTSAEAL
Compound,Ki [nM],Ki [1] [nM]
N#Cc1ccc(C(=O)NC[C@@H]2CC[C@@H](c3ccc(Cl)cc3Cl)N(c3ccc(Cl)cc3)C2)cc1 [Example 91],~4,–
O=S(=O)(NC[C@@H]1CC[C@@H](c2ccc(Cl)cc2Cl)N(c2ccc(Cl)cc2)C1)c1ccccc1 [Example 86],–,~9
O=S(=O)(NC[C@@H]1CC[C@@H](c2ccc(Cl)cc2Cl)N(c2ccc(Cl)cc2)C1)c1cc(F)ccc1F [Example 112],–,~2
O=S(=O)(NC[C@@H]1CC[C@@H](c2ccc(Cl)cc2Cl)N(c2ccc(Cl)cc2)C1)c1cccc(Cl)c1 [Example 120],–,~2
